Test results: PMC11731258, “The structural basis for high-affinity c-di-GMP binding to the GSPII-B domain of the traffic ATPase PilF from Thermus thermophilus” (The Journal of Biological Chemistry, 2024)
Where two headings read alike, the source gives them in different places.

Key:
PilF159-302 Q218E = target: T1, PilF159-302 Q218E (Thermus thermophilus, UniProt Q5SLC9, Q218E); test: ITC binding to PilF159-302 Q218E; conditions: 20 °C
T1 sequence (Q5SLC9 159-302 Q218E): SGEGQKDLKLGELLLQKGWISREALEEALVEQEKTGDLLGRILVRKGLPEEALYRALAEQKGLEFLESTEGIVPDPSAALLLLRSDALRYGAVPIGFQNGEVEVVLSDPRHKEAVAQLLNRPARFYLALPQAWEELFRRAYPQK
Procedure: (§1) To assess the ligand-binding capabilities of the various PilF constructs, triplicates of ITC measurements were recorded for each construct. The measurements were carried out using a MicroCal ITC200 (Malvern Panalytical). All ITC experiments were conducted at 20 °C with 50 mM Tris-HCl pH 7.5, 200 mM sodium chloride, 1 mM β-mercaptoethanol as the sample buffer. All protein samples were extensively dialyzed against the sample buffer and the buffer used for dialysis was used to dilute protein and c-di-GMP samples in preparation for the ITC measurements. Each measurement was conducted using the following protocol. In total, 39.8 μl c-di-GMP were titrated to 270 μl protein in 20 separate injections in 180 s intervals with a stirring speed of 750 rpm. After an initial delay of 120 s, the first injection of 0.2 μl c-di-GMP with a duration of 0.4 s was followed by 19 injections of 2 μl with a duration of 4 s. During the measurement, the feedback mode was set to high and the reference power to 11 μcal s^−1. To optimize precision of the measurements, protein and c-di-GMP concentrations were adjusted to the binding capabilities of the respective constructs and ranged from 5 to 200 μM for protein and 50 to 2000 μM for c-di-GMP. All thermograms were processed using Origin 7.0 (OriginLab) using a one-site– or two-site–binding model dependent on the number of expected binding events.

PilF159-482 = target: T2, PilF159-482 (Thermus thermophilus, UniProt Q5SLC9); test: ITC binding to PilF159-482; conditions: 20 °C; for Kd: pH 7.5, two-site model
T2 sequence (Q5SLC9 159-482): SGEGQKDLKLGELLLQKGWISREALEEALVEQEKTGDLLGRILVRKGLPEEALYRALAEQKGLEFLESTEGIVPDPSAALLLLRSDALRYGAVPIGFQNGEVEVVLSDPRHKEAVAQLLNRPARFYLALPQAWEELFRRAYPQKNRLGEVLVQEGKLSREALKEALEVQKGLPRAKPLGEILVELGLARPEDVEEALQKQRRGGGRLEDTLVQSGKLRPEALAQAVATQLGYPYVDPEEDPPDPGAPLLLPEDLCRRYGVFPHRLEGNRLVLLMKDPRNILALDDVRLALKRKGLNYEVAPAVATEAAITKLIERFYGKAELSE
Procedure: as §1

PilF159-302 L166G = target: T3, PilF159-302 L166G (Thermus thermophilus, UniProt Q5SLC9, L166G); test: ITC binding to PilF159-302 L166G; conditions: 20 °C
T3 sequence (Q5SLC9 159-302 L166G): T1 sequence (Q5SLC9 159-302 Q218E)
Procedure: as §1

PilF159-302 Q190E+Q218E = test: ITC binding to PilF159-302 Q190E+Q218E; parameters: species or system Thermus thermophilus; conditions: 20 °C, double mutant
Procedure: as §1

[1] = target: T4, PilF1-889 (full-length PilF) (Thermus thermophilus, UniProt Q5SLC9); test: ITC c-di-GMP binding to full-length PilF; conditions: 20 °C; for Kd: pH 7.5, two-site model
T4 sequence (Q5SLC9 1-889): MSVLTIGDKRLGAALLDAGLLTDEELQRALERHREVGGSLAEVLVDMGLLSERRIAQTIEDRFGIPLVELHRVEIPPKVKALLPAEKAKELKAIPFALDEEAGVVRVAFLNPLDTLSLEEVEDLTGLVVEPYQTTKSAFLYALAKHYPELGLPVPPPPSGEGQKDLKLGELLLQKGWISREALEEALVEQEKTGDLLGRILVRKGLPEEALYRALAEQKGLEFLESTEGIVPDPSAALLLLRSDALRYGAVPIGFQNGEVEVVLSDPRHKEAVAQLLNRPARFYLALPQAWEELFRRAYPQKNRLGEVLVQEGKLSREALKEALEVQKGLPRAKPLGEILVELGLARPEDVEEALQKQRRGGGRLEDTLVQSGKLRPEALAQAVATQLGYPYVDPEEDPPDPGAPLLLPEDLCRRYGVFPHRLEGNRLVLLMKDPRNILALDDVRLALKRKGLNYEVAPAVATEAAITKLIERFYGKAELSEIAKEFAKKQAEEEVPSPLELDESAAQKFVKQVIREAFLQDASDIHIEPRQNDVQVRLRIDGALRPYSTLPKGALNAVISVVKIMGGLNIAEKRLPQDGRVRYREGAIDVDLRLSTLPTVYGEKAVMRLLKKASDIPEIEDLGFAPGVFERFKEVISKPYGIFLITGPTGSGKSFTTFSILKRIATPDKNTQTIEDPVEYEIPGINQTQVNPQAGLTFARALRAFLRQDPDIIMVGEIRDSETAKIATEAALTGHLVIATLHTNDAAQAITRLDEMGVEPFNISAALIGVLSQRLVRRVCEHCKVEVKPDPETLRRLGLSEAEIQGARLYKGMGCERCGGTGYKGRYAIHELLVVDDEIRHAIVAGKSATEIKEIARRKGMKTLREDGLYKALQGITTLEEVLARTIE
Procedure: as §1

## Nc1nc2c(ncn2[C@@H]2O[C@@H]3COP(=O)(O)O[C@H]4[C@@H](O)[C@H](n5cnc6c(=O)[nH]c(N)nc65)O[C@@H]4COP(=O)(O)O[C@H]3[C@H]2O)c(=O)[nH]1 [c-di-GMP, cyclic dimeric guanosine monophosphate]
PilF159-302 Q218E
  N: 1.26 ± 0.06
  ΔH: -5.312 ± 0.34 kcal/mol
  ΔS: 10.9 ± 1.0 cal/mol/deg
PilF159-302 Q218E; pH 7.5
  Kd: 460 ± 28 nM
PilF159-482; Table S1 site 1
  N, site 1: 1 ± 0.1
  ΔH, site 1: -8.689 ± 0.959 kcal/mol
  ΔS, site 1: 0.95 ± 3.5 cal/mol/deg
PilF159-482; Table S1 site 2
  N, site 2: 0.7 ± 0.1
  ΔH, site 2: -11.766 ± 1.182 kcal/mol
  ΔS, site 2: 2.1 ± 4.7 cal/mol/deg
PilF159-482; read-out: KD, site 1 (low affinity)
  Kd: 208 ± 27 nM
PilF159-482; read-out: KD, site 2 (high affinity)
  Kd: 1 ± 0.3 nM
PilF159-302 L166G
  N: 0.92 ± 0.10
  ΔH: -10.283 ± 0.189 kcal/mol
  ΔS: 1.2 ± 3.4 cal/mol/deg
PilF159-302 L166G; pH 7.5
  Kd: 3 nM
PilF159-302 Q190E+Q218E
  c-di-GMP binding: abrogated c-di-GMP binding
[1]; Table S1 site 1
  ΔH, site 1: -11.763 ± 0.78 kcal/mol
  ΔS, site 1: -10.4 ± 2.7 cal/mol/deg
[1]; Table S1 site 1 (low affinity)
  N, site 1: 0.72 ± 0.10
[1]; Table S1 site 2
  ΔH, site 2: -15.683 ± 0.97 kcal/mol
  ΔS, site 2: -16.5 ± 2.2 cal/mol/deg
[1]; Table S1 site 2 (high affinity)
  N, site 2: 0.59 ± 0.03
[1]; read-out: KD, high-affinity site (KD1 in text and Fig. 1C; site 2 in Table S1)
  Kd: 10 ± 5 nM
[1]; read-out: KD, low-affinity site (KD2 in text and Fig. 1C; site 1 in Table S1)
  Kd: 324 ± 2 nM
